Earlier results, collected in US9205152B2, “Melt-blended protein composition” (Kimberly-Clark Worldwide, Inc., priority 2010, dated 2015).

Details: pH prior to incorporation into the composition

SMILES: OCC(O)CO [glycerol]
- pH: about 6
